These results are taken from patent publication US5756291A, “Aptamers specific for biomolecules and methods of making” (priority 1995, dated 1998).

“And” between values parts separate entries of the source, which are not always exact repeats. Equal entries are not always repeated. Some results are limits rather than exact numbers.

Series [1] relates to Kallikrein. In words: Filter binding specificity assay (Table 11), kallikrein. As to conditions: Kallikrein about 1 µM. The procedure: (§1) Briefly, radiolabeled aptamer DNA at about a concentration of about 1 nM was incubated with the indicated protein for several minutes at room temperature, followed by filtration of the aptamer-protein mixture through a nitrocellulose filter. The filter was washed with 3 mL of selection buffer and then radioactivity bound to the filters was determined as a % of input radioactivity. Binding data is shown for both unselected 96-mer DNA and for two separate experiments with clone #29 96-mer. All proteins were tested at about 1M concentration except human serum albumin which was used at 100M.

Series [2] deals with human serum albumin. The series can be described thus: Filter binding specificity assay (Table 11), albumin. As to conditions: human serum albumin 100 µM; listed as Clone 29 DNA. As for the experimental part:
as §1

Series [3] deals with Plasmin. In words: Filter binding specificity assay (Table 11), plasmin. On the set-up: dose or concentration left out as unconfirmed. The procedure: as §1
The subject of series [4] is TPA. In words: Filter binding specificity assay (Table 11), TPA. As to conditions: TPA about 1 µM. The procedure:
as §1

For series [5], the system named is Trypsin. In words: Filter binding specificity assay (Table 11), trypsin. Details: dose or concentration left out as unconfirmed. As for the experimental part:
as §1

Series [6] has as its system Prothrombin. The series can be described thus: Filter binding specificity assay (Table 11), prothrombin. Details: dose or concentration left out as unconfirmed. As to conditions: listed as Clone 29 DNA. As for the experimental part:
as §1

In series [7] the target is thrombin. The series can be described thus: Nitrocellulose filter binding, dissociation constant for thrombin. On the set-up: species or system human. As for the experimental part: Filter binding assays using aptamer DNA from 14 of the clones were used to determine the dissociation constants (KD) for thrombin as follows: Thrombin concentrations between […] and 1 nM were incubated at room temperature in selection buffer for 5 minutes in the presence of […] of radiolabeled 96-mer derived from cloned Round 5 aptamer DNA. After incubation, the thrombin and aptamer mixture was applied to nitrocellulose filters (0.2 micron, 2.4 cm diameter) that were pretreated with salmon sperm DNA (1 mg/ml DNA in selection buffer) and washed twice with 1 ml selection buffer. After application of thrombin mixture, the filters were washed three times with 1 ml selection buffer. The radioactivity retained on the filters was then determined. KD values for the individual clones ranged from 50 to >2000 nM.
One of these two clones (#17) and the original unselected pool was analyzed for thrombin binding by nitrocellulose filter assay described above using DNA labeled with ^32 P to permit analysis of thrombin binding characteristics. The labeled DNA was synthesized by PCR and contained 5-(1-pentynyl)-2'-deoxyuridine in order to retain the original selected DNA structures. The DNA was incubated with thrombin at various concentrations between 10 nM and 10M to obtain the KD values for thrombin binding. The KD of the unselected pool was […] while the KD of clone 17 was 400 nM. […]

Series [8] has as its system Chymotrypsin. The series can be described thus: Filter binding specificity assay (Table 11), chymotrypsin. To be noted: Chymotrypsin about 1 µM. As for the experimental part: as §1
The subject of series [9] is thrombin. In words: Filter binding specificity assay (Table 11), thrombin. As to conditions: DNA about 1 nM. As for the experimental part:
as §1

Series [10] relates to thrombin. In words: Clotting time, thrombin-catalyzed conversion of fibrinogen to fibrin. The series is classed as biochemical. As to conditions: thrombin 10 nM. The procedure:
Clotting time for the thrombin-catalyzed conversion of fibrinogen (2.0 mg/ml in selection buffer) to fibrin at 37 C. was measured using a precision coagulation timer apparatus (Becton-Dickinson, Cat. nos. 64015, 64019, 64020). Thrombin (10 nM) incubated with fibrinogen alone clotted in 40 sec, thrombin incubated with fibrinogen and P1 nuclease (Boehringer-Mannheim, Indianapolis, Ind.) clotted in 39 sec, thrombin incubated with fibrinogen and aptamer clone #5 (200 nM) clotted in 115 sec, and thrombin incubated with fibrinogen, clone #5 (200 nM) and […] clotted in 40 sec. All incubations were carried out at 37 C. using reagents prewarmed to 37 C. Aptamer DNA or, when present, P1 nuclease, was added to the fibrinogen solution prior to addition of thrombin.

In series [11] the test system is ancrod. In words: Ancrod fibrinogen clotting assay. The series is classed as biochemical. The procedure: The thrombin 21-mer ancrod assay was conducted as follows. Ancrod was suspended in sterile water at a concentration of 44 U/mL. 10 L ancrod solution was added to 95 L of selection buffer prewarmed to 37 C. 100 L of this mixture was transferred to the coagulation cup of the fibrometer described above, followed by addition of 200 L of fibrinogen and 20 L of 21-mer DNA (both prewarmed to 37 C). TE buffer pH 7.0 was used as a control lacking DNA. The control clot time was 25 seconds while the clot time in the presence of 500 nM 21-mer was 24 seconds and was 26 seconds in the presence of 33M 21-mer.

Series [12] has as its system thrombin. The series can be described thus: Thrombin inhibition Ki. As to conditions: Table 7. It is filed as biochemical. The text has this:
The binding affinity of the aptamers herein with respect to targets and other molecules is defined in terms of Kd. The value of this dissociation constant can be determined directly by well-known methods, and can be computed even for complex mixtures by methods such as those, for example, set forth in Caceci, M., et al., Byte (1984) 9:340-362. It has been observed, however, that for some small oligonucleotides, direct determination of Kd is difficult, and can lead to misleadingly high results. Under these circumstances, a competitive binding assay for the target molecule or other candidate substance may be conducted with respect to substances known to bind the target or candidate. The value of the concentration at which 50% inhibition occurs (Ki) is, under ideal conditions, equivalent to Kd. However, in no event can Ki be less than Kd. Thus, determination of Ki, in the alternative, sets a maximal value for the value of Kd. Under those circumstances where technical difficulties preclude accurate measurement of Kd, measurement of Ki can conveniently be substituted to provide an upper limit for Kd.
Independent verification of the Ki for the nonmodified 15-mer was made by determining the extent of thrombin inhibition with varying DNA concentration.

Series [13] has as its system thrombin. In words: Prothrombin time test (PT) after intravenous aptamer in monkeys. To be noted: high dose infusion 0.5 mg/kg/min. It is filed as in vivo, cynomologous monkeys. As for the experimental part:
Two thrombin aptamers were administered to adult male cynomologous monkeys. Unsubstituted 15-mer DNA with the sequence 5' GGTTGGTGTGGTTGG 3' and an analog, 5' GGTTGGTGTGGTT*G*G 3', containing thioate internucleotide linkages at the indicated positions were used. Aptamer was delivered as an intravenous bolus or infusion and then blood samples were withdrawn at various times after delivery of the bolus or during and after infusion. The catheter was heparinized after the 10 minute timepoint. The animals were not systematically heparinized.
Thrombin inhibition was measured by a prothrombin time test (PT) using a commercially available kit, reagents and protocol (Sigma Diagnostics, St. Louis, catalog Nos. T 0263 and 870-3). Inhibition of thrombin was indicated by an increased clot time compared to the control in the PT test. Clot times were obtained by withdrawing a sample of blood, spinning out red cells and using the plasma in the PT test. Control thrombin PT clot time values were obtained several minutes prior to administration of aptamer. Briefly, the PT assay was conducted using 0.1 mL of monkey plasma prewarmed to 37 C. and 0.2 mL of a 1:1 mixture of thromboplastin (used according to manufacturers instructions) and CaCl2 (25 mM), also prewarmed to 37 C. Thrombin clot times were measured with a fibrometer as described above. […]

In series [14] the test system is human blood. In words: Extracorporeal hemodialysis circuit blood coagulation. As to conditions: heparin 1 U/mL. As for the experimental part:
A bolus of 15-mer DNA was delivered to human blood at 37 C. to give an aptamer concentration of 10M. The blood was contained in an extracorporeal hemodialysis circuit (Travenol, Model No. CA-90). Pressure proximal to the hemodialysis filter was monitored to determine the time after administration of aptamer that coagulation occurred. Blood coagulation was marked by a pressure increase from about 50 mm Hg observed with uncoagulated blood (blood flow rate 200 mL/min) to pressure of at least 400 mm Hg.

For orientation: Kd means the free concentration of one partner at which half of the binding sites on the other are occupied at equilibrium, for simple one-to-one binding. Take “5' CGGGGAGAGGTTGGTGTGGTTGGCAATGGCTAGAGTAGTGAC GTTTTCGCGGTGAGGTCC 3' [Clone #29]”: the “% Bound” value was less than 0.5% in [1]; 2.0% and < 0.5% in [2]; 15.0% in series [3]; less than 0.5% in series [4]; less than 0.5% in series [5]; 11.0% and 9.5% in [6]. Also, the “% Bound” value in series [8] is on record as less than 0.5%; in series [9] (Control, no protein), 0%; in series [9] (Thrombin about 1 µM), 59.0%. This substance showed a Kd in series [7] of approximately 200 nM.

As for 5' GGGGGTT 3' [reference compound], the thrombin clotting time in [10] came to 26 s.

In series [10], 5' GGTTGGG 3' came in with a thrombin clotting time of 38 s.

As to “5' GGTTGGGCTGGTTGGGTTGGG 3' (chemistry not given here) [Compound 21-mer, 21-mer thrombin aptamer]”, the results for the clot time in series [11] (500 nM 21-mer) and in series [11] (21-mer) were 24 s and 26 s, respectively.

In general, Ki refers to the equilibrium dissociation constant of an inhibitor or competing ligand from its target. The substance 5' GGTTGGTGTGGTT*G*G 3' displayed a Ki in [12] of 40 nM. Besides, the “PT clot time during infusion” value in [13] fell in the range of 2.5 to 2.7 times the control value.

“G*G*T*T*G*G*T*G*T*G*G*T*T*G*G: 15-mer with all thioate linkages” displayed a Ki in series [12] of 280 nM.

“GG(dU)TGGTGTGG(dU)TGG: 15-mer with uracil for thymine” came in with a Ki in series [12] of 80 nM.

The substance “GGTTGG(dU)G(dU)GGTTGG: 15-mer with uracil for thymine” came in with a Ki in series [12] of 15 nM.

The substance “GGTTGGTGTGGTTGG#G#T: closely related 17-mer with MEA linkages” had a Ki in series [12] of 35 nM.

“GGTTGGTGTGGTU'GG: 15-mer with 5-(1-pentynyl)uracil”: in series [12], the affinity, expressed as Ki, was 20 nM.

Turning to heparin, the “time to blood coagulation in hemodialysis unit” value in series [14] is more than 80 min.
